Data on 14 compounds can be found in PubChem BioAssay (NCI).

The structures appear in SMILES notation.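 Protocol summary: plate cells (96-well), add compound at 5 concentrations, incubate 48 h, interpolate endpoints linearly. Definition used: TGI = concentration required for complete inhibition of growth.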 Some results are limits rather than exact numbers.

Among the test systems are A549 NSCLC; HCT-15 colon; HOP-62 NSCLC; K-562 leukemia; MOLT-4 leukemia; NCI/ADR-RES ovarian; OVCAR-3 ovarian; OVCAR-8 ovarian; SK-OV-3 ovarian; SNB-19 CNS.
Holding throughout (experiment): NCI-60 cell line screen, 48 h

Turning to `N#CC(c1ccc(O)cc1)N1CCN(C(C#N)c2ccc(O)cc2)CC1` (stereo not given), the TGI in the experiment with A549 NSCLC is over 100 µM; in the experiment on HCT-15 colon, over 100 µM; in the experiment on HOP-62 NSCLC, 57.1 µM; with K-562 leukemia it was over 100 µM; in the experiment with MOLT-4 leukemia, over 100 µM; with NCI/ADR-RES ovarian it was over 100 µM. In addition, the TGI in the experiment with OVCAR-3 ovarian was over 100 µM; with OVCAR-8 ovarian, over 53.1 µM; in the experiment on SK-OV-3 ovarian, over 100 µM; in the experiment on SNB-19 CNS, 75.7 µM.

As to `COC(=O)OC[C@H]1O[C@@H](n2cc(C)c(=O)[nH]c2=O)CC1OC(=O)OC` (stereo not given in full), the TGI with A549 NSCLC, in the experiment on HCT-15 colon, in the experiment with HOP-62 NSCLC, in the experiment with K-562 leukemia, in the experiment with MOLT-4 leukemia and in the experiment on NCI/ADR-RES ovarian was over 100 µM throughout. Further, the TGI in the experiment on OVCAR-3 ovarian, in the experiment with OVCAR-8 ovarian, in the experiment with SK-OV-3 ovarian and in the experiment on SNB-19 CNS was over 100 µM throughout.

For the compound `CC(C)CN1CN(c2ccccc2)C2(CCN(CC(C)(c3ccc(F)cc3)C3OCCO3)CC2)C1=O` (stereo not given), the TGI with A549 NSCLC came out at 19.7 µM; in the experiment on HCT-15 colon, 16.6 µM; in the experiment with HOP-62 NSCLC, 13.8 µM; in the experiment with K-562 leukemia, 18 µM; in the experiment with MOLT-4 leukemia, 7.32 µM; in the experiment with NCI/ADR-RES ovarian, 37.4 µM. Moreover, the TGI in the experiment on OVCAR-3 ovarian is 22.4 µM; in the experiment on OVCAR-8 ovarian, 29.3 µM; in the experiment on SK-OV-3 ovarian, 14.3 µM; in the experiment with SNB-19 CNS it was 21.9 µM.

In the case of `Oc1ccc(-c2cc(-c3c(O)cc(O)cc3O)on2)cc1`, the TGI with A549 NSCLC, with HCT-15 colon, with HOP-62 NSCLC, in the experiment with K-562 leukemia, in the experiment on MOLT-4 leukemia and in the experiment on NCI/ADR-RES ovarian was over 100 µM each time. In addition, the TGI in the experiment on OVCAR-3 ovarian, in the experiment with OVCAR-8 ovarian, in the experiment on SK-OV-3 ovarian and with SNB-19 CNS was over 100 µM throughout.

Turning to `O=c1c2cc([N+](=O)[O-])ccc2n2n1Cc1ccccc1CC2`, the TGI in the experiment on A549 NSCLC, in the experiment on HCT-15 colon, in the experiment on HOP-62 NSCLC, with K-562 leukemia, with MOLT-4 leukemia and in the experiment with NCI/ADR-RES ovarian was over 100 µM in each case. Further, the TGI in the experiment on OVCAR-3 ovarian, in the experiment with OVCAR-8 ovarian, with SK-OV-3 ovarian and in the experiment on SNB-19 CNS was over 100 µM each time.

Regarding `Oc1c(OCc2nnc(CCCCCCCCc3nnc(COc4ccc5ccccc5c4O)n3Nc3ccccc3)n2Nc2ccccc2)ccc2ccccc12`, the TGI in the experiment on A549 NSCLC was 27.8 µM; in the experiment with HCT-15 colon, 30 µM; in the experiment with HOP-62 NSCLC it was 3.77 µM; in the experiment with K-562 leukemia, over 100 µM; in the experiment with MOLT-4 leukemia it was over 100 µM; in the experiment on NCI/ADR-RES ovarian, 42.6 µM. Further, the TGI with OVCAR-3 ovarian is 30.6 µM; with OVCAR-8 ovarian, 28.3 µM; with SK-OV-3 ovarian, 27.3 µM; in the experiment with SNB-19 CNS, 29.8 µM.

Take `COc1ccc(NC(=S)NN=C(C)c2cccc(C(C)=NNC(=S)Nc3ccc(OC)cc3)n2)cc1`: the TGI in the experiment with A549 NSCLC, in the experiment on HCT-15 colon, in the experiment with HOP-62 NSCLC, in the experiment on K-562 leukemia, with MOLT-4 leukemia and in the experiment on NCI/ADR-RES ovarian was over 100 µM in each case. In addition, the TGI in the experiment with OVCAR-3 ovarian, in the experiment on OVCAR-8 ovarian, in the experiment on SK-OV-3 ovarian and with SNB-19 CNS was over 100 µM in each case.

Turning to `O=S(=O)(O)c1ccc(NN(c2c(O)ccc3ccccc23)S(=O)(=O)O)cc1`, the TGI in the experiment on A549 NSCLC, in the experiment on HCT-15 colon, in the experiment on HOP-62 NSCLC, in the experiment on K-562 leukemia, in the experiment with MOLT-4 leukemia and in the experiment on NCI/ADR-RES ovarian was over 100 µM in each case. Moreover, the TGI with OVCAR-3 ovarian, in the experiment with OVCAR-8 ovarian, in the experiment on SK-OV-3 ovarian and in the experiment on SNB-19 CNS was over 100 µM throughout.

With `COC1/C=C\C=C(/C)C(=O)NC2=CC(=O)C(NCCCl)=C(CC(C)CC(OC)C(O)C(C)/C=C(/C)C1OC(N)=O)C2=O` (stereo not given), the TGI with A549 NSCLC came to 14.3 µM; in the experiment on HCT-15 colon, 2.77 µM; in the experiment on HOP-62 NSCLC, 5.91 µM; with K-562 leukemia, 13.5 µM; in the experiment with MOLT-4 leukemia, 5.13 µM; in the experiment on NCI/ADR-RES ovarian, 31.1 µM. Moreover, the TGI with OVCAR-3 ovarian is 8.4 µM; with OVCAR-8 ovarian it was 10.5 µM; in the experiment with SK-OV-3 ovarian it was 2.11 µM; in the experiment on SNB-19 CNS, 13.6 µM.

For `CC1C(c2ccc(N(C)C)cc2)c2cc3c(cc2OC1N1CCCC1)OCO3` (stereo not given), the TGI was over 100 µM in the experiment on A549 NSCLC; over 100 µM with HCT-15 colon; over 78.6 µM in the experiment on HOP-62 NSCLC; 97.3 µM with K-562 leukemia; over 100 µM in the experiment with MOLT-4 leukemia; over 94.1 µM with NCI/ADR-RES ovarian. For the same compound, the TGI in the experiment with OVCAR-3 ovarian, in the experiment with OVCAR-8 ovarian and in the experiment with SNB-19 CNS was over 100 µM throughout.

For `COc1ccc(C2CC(c3cc4c(C)c(C(=O)c5ccccc5)oc4cc3O)=Nc3ccccc3S2)cc1OC` (stereo not given), the TGI in the experiment on A549 NSCLC was over 100 µM; in the experiment on HCT-15 colon, over 100 µM; in the experiment with HOP-62 NSCLC, over 34.3 µM; in the experiment with K-562 leukemia, over 100 µM; in the experiment with MOLT-4 leukemia, over 100 µM; in the experiment with NCI/ADR-RES ovarian, over 100 µM. In addition, the TGI in the experiment on OVCAR-3 ovarian was over 100 µM; with OVCAR-8 ovarian it was over 100 µM; in the experiment on SNB-19 CNS, over 85.8 µM.

Take `COc1c2nc(CCl)n(C)c(=O)c2c(OC)c2c(=O)n(C)c(CCl)nc12`: the TGI stood at 13.3 µM in the experiment on A549 NSCLC; 2.86 µM in the experiment on HCT-15 colon; 5.7 µM in the experiment on HOP-62 NSCLC; 7.83 µM with K-562 leukemia; 1.54 µM in the experiment on MOLT-4 leukemia; 6.88 µM with NCI/ADR-RES ovarian. Besides, the TGI with OVCAR-3 ovarian stood at 5.68 µM; with OVCAR-8 ovarian it was 13.2 µM; in the experiment with SNB-19 CNS, 5.07 µM.

Regarding `Nc1c(Br)cc(-c2cc(Br)c(N)c(Br)c2)cc1Br`, the TGI with A549 NSCLC, in the experiment with HOP-62 NSCLC, in the experiment on K-562 leukemia, with MOLT-4 leukemia, with NCI/ADR-RES ovarian and in the experiment on OVCAR-3 ovarian was over 100 µM each time. Further, the TGI in the experiment with OVCAR-8 ovarian, in the experiment on SK-OV-3 ovarian and with SNB-19 CNS was over 100 µM in each case.

Take `O=S(=O)(O)c1cc(Cl)c(O)c2ncc(Cl)cc12`: the TGI with A549 NSCLC was over 100 µM; in the experiment on HCT-15 colon, over 100 µM; in the experiment with HOP-62 NSCLC, over 100 µM; with K-562 leukemia, over 100 µM; in the experiment with MOLT-4 leukemia, 66.4 µM; with NCI/ADR-RES ovarian, over 100 µM. The TGI with OVCAR-3 ovarian, in the experiment with OVCAR-8 ovarian and with SNB-19 CNS was over 100 µM in each case.
